Reference: ChEMBL document CHEMBL1146899, “Redefining the structure-activity relationships of 2,6-methano-3-benzazocines. 4. Opioid receptor binding properties of 8-[N-(4'-phenyl)-phenethyl)carboxamido] analogues of cyclazocine and ethylketocycalzocine” (J Med Chem, 2006)
Active and inactive are the calls of the source. The rule behind the calls is not given here.

Columns and labels:
[1] = molecular target: Kappa-type opioid receptor (Homo sapiens, UniProt P41145); assay: biochemical; type: cell-based, CHO
Description: Displacement of [3H]U-69593 from human kappa opioid receptor expressed in CHO cells

[2] = molecular target: Delta-type opioid receptor (Homo sapiens, UniProt P41143); assay: Displacement of [3H]naltrindole from human delta opioid receptor expressed in CHO cells; type: cell-based
[3] = molecular target: Mu-type opioid receptor (Homo sapiens, UniProt P35372); assay: Displacement of [3H]DAMGO from human mu opioid receptor expressed in CHO cells; type: cell-based
[4] = test system: Mus musculus; assay: Antinociceptive activity in mouse at 1 mg/kg, ip; type: functional, organism-based; parameters: dose 1 mg/kg

Chain of Delta-type opioid receptor (P41143 whole entry): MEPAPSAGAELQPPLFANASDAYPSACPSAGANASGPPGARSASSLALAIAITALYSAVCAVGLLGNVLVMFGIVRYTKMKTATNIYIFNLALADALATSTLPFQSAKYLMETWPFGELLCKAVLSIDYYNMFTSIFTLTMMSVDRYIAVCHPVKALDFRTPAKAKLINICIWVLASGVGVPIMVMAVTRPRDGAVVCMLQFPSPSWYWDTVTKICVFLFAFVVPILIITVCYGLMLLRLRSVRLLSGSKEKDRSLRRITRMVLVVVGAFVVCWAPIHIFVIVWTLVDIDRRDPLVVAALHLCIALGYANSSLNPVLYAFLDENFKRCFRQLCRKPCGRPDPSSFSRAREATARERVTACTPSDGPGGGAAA
Chain of Kappa-type opioid receptor (P41145 whole entry): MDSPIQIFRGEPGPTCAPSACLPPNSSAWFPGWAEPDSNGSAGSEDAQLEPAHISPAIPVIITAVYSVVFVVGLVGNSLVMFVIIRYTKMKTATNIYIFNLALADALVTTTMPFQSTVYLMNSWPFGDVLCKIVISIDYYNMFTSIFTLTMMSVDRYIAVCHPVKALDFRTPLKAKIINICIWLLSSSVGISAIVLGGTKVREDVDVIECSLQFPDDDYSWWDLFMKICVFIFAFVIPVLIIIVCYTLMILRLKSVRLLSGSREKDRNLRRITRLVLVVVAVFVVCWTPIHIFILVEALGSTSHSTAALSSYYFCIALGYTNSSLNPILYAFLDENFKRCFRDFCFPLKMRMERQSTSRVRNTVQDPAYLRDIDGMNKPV
Chain of Mu-type opioid receptor (P35372 whole entry): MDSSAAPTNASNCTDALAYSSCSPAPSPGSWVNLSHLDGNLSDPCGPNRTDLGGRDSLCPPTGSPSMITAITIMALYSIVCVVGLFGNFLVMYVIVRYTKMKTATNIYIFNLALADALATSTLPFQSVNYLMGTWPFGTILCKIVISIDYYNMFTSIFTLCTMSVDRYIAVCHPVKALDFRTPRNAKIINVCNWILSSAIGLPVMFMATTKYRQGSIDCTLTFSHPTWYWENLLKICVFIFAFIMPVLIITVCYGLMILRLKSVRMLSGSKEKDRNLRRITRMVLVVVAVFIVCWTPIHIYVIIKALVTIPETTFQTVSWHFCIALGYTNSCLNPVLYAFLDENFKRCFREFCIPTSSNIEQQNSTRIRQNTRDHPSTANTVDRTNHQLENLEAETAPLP

| Structure (SMILES) | Ki [1] [nM] | Ki [2] [nM] | Ki [3] [nM] | Activity [4] |
| --- | --- | --- | --- | --- |
| C[C@H]1C2Cc3ccc(C(=O)Nc4ccccc4)cc3[C@@]1(C)CCN2CC1CC1 | 270 | 2100 | 840 |  |
| C[C@H]1C2Cc3ccc(C(N)=O)cc3[C@@]1(C)CCN2CC1CC1 |  | 5.2 |  | Active |
| CC[C@@]12CCN(CC3CC3)C(C(=O)c3ccc(C(N)=O)cc31)[C@@H]2C | 0.47 | 23 | 2.1 |  |
| C[C@H]1C2Cc3ccc(C(=O)NCc4ccc(-c5ccccc5)cc4)cc3[C@@]1(C)CCN2CC1CC1 (mixture of isomers) | 26 | 170 | 11 |  |
| C[C@H]1C2Cc3ccc(C(=O)NCCc4ccccc4)cc3[C@@]1(C)CCN2CC1CC1 (mixture of isomers) | 1.7 | 59 | 3.5 |  |
| C[C@H]1C2Cc3ccc(C(=O)NCCCc4ccccc4)cc3[C@@]1(C)CCN2CC1CC1 (mixture of isomers) | 3 | 47 | 2.5 |  |
| C[C@H]1C2Cc3ccc(C(=O)NCc4ccccc4)cc3[C@@]1(C)CCN2CC1CC1 (mixture of isomers) | 36 | 210 | 27 |  |
| CC[C@@]12CCN(CC3CC3)C(C(=O)c3ccc(C(=O)NCCc4ccc(-c5ccccc5)cc4)cc31)[C@@H]2C (mixture of isomers) | 1.3 | 3.9 | 3.1 |  |
| C[C@H]1C2Cc3ccc(C(=O)Nc4ccc(-c5ccccc5)cc4)cc3[C@@]1(C)CCN2CC1CC1 (mixture of isomers) | 27 | 110 | 18 |  |
| C[C@H]1C2Cc3ccc(C(=O)N(C)CCc4ccc(-c5ccccc5)cc4)cc3[C@@]1(C)CCN2CC1CC1 (racemic) | 11 | 12 | 6.7 |  |
